# How the values were obtained:
# Format in all cases: biochemical
# Human Calpain 1/NS1 = target: T1, Human Calpain 1/NS1 (Homo sapiens, UniProt P07384); experiment: Calpain inhibition continuous fluorescence (FRET) assay, Human Calpain 1/NS1; details: Column A; read-out: Human Calpain 1/NS1 IC50
# T1 sequence (P07384 1-714): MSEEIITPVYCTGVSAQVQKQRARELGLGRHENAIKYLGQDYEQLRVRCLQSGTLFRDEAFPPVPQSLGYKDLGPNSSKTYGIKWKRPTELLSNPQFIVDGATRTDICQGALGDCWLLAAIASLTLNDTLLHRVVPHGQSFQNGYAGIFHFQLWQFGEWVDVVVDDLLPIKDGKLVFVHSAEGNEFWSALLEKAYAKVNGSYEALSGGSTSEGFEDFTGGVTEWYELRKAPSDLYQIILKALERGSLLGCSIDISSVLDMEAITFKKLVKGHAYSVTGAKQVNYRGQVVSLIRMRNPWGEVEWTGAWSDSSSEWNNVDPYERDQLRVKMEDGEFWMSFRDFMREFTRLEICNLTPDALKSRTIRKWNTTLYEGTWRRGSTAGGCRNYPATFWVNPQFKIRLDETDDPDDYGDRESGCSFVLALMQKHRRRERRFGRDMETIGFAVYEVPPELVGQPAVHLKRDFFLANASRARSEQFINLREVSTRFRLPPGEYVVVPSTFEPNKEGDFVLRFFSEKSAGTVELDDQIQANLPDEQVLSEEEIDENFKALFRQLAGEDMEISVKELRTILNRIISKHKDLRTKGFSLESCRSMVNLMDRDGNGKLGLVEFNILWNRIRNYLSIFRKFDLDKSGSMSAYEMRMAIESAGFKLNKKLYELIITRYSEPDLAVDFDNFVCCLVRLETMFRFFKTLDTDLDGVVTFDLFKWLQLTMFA
# T1 sequence (P04632 1-268 partner): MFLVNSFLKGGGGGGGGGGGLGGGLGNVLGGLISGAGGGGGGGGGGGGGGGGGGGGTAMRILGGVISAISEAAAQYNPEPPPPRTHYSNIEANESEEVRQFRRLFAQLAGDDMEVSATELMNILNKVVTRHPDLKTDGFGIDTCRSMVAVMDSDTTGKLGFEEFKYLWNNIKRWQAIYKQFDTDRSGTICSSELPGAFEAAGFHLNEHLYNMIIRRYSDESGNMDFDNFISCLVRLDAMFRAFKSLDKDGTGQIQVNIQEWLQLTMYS
# Procedure: (§1) Calpain 1, 2, and 9 activity and inhibition thereof was assessed by means of a continuous fluorescence assay. The SensoLyte 520 Calpain substrate (Anaspec Inc) was optimized for detecting calpain activity. This substrate contains an internally quenched 5-FAM/QXL™ 520 FRET pair. Calpains 1, 2, and 9 cleave the FRET substrate into two separate fragments resulting in an increase of 5-FAM fluorescence that is proportional to calpain activity
# (§2) Assays were typically setup in black 384-well plates using automated liquid handling as follows. Calpain assay base buffer typically contains 50 mM Tris, pH 7.5, 100 mM NaCl and 1 mM DTT. Inhibitors were serially diluted in DMSO and used to setup 2× mixtures with calpains in the aforementioned buffer. After incubation at ambient temperature (25C), the reaction was initiated by adding a 2× mix of the fluorescent peptide substrate and CaCl2) (required for in-situ calpain activation) in the same buffer. Reaction progress curve data were typically collected for 10 min using excitation/emission wavelengths of 490 nm/520 nm on SpectraMax i3× or the FLIPR-Tetra plate readers (Molecular Devices Inc). Reaction rates were calculated from progress curve slopes typically over 1-5 min. Dose response curves (rate vs. log inhibitor concentration) were typically fit to a 4-parameter logistic function to extract IC50 values.
# Human Calpain 2/NS1 = target: T2, Human Calpain 2/NS1 (Homo sapiens, UniProt P17655); experiment: Calpain inhibition continuous fluorescence (FRET) assay, Human Calpain 2/NS1; details: Column B; read-out: Human Calpain 2/NS1 IC50
# T2 sequence (P17655 1-700): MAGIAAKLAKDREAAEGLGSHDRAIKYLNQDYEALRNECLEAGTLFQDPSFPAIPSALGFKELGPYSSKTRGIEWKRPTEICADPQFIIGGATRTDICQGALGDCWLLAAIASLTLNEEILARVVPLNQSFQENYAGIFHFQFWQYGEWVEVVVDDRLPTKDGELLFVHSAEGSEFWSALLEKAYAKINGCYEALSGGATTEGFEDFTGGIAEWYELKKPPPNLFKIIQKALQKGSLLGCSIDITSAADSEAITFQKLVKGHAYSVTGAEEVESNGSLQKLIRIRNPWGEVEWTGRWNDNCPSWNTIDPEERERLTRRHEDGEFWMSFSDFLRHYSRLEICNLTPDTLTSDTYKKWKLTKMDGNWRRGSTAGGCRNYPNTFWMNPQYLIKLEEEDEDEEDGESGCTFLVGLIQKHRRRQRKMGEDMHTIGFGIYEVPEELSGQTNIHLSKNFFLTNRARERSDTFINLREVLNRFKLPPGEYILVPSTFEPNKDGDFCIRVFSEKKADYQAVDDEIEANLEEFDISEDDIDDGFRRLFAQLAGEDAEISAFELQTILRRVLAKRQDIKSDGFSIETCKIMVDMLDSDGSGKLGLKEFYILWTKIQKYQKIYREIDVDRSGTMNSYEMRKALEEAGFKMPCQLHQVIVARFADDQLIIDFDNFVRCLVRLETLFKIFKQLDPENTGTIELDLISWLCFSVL
# T2 sequence (P04632 1-268 partner): T1 sequence (P04632 1-268 partner)
# Procedure: as §1, §2
# Human Calpain 9/NS1 = target: T3, Human Calpain 9/NS1 (Homo sapiens, UniProt O14815); experiment: Calpain inhibition continuous fluorescence (FRET) assay, Human Calpain 9/NS1; details: Column C; read-out: Human Calpain 9/NS1 IC50
# T3 sequence (O14815 1-690): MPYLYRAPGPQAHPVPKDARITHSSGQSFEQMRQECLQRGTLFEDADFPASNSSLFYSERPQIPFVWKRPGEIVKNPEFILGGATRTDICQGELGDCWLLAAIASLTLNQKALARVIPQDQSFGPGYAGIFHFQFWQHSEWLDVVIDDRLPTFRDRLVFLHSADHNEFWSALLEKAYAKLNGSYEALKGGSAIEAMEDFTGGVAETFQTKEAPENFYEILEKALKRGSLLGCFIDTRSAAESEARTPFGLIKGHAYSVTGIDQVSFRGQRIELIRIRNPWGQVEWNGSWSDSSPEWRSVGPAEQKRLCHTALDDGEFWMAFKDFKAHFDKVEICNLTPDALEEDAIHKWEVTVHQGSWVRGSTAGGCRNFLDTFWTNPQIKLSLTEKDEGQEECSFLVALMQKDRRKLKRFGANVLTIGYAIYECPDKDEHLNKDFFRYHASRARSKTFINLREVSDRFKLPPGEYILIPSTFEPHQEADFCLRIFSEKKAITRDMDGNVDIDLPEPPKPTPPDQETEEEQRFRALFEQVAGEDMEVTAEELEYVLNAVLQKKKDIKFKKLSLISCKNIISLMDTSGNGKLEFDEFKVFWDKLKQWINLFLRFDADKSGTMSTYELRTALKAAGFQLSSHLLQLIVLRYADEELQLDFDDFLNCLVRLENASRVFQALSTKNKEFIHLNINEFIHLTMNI
# T3 sequence (P04632 1-268 partner): T1 sequence (P04632 1-268 partner)
# Procedure: as §1, §2
IC50 (Human Calpain 1/NS1),IC50 (Human Calpain 2/NS1),IC50 (Human Calpain 9/NS1),Compound
< 3 µM,< 3 µM,< 3 µM,"NC(=O)C(=O)[C@H](Cc1ccccc1)NC(=O)c1scnc1-n1cc(-c2ccccc2)cn1 [Compound 39, (S)—N-(4-amino-3,4-dioxo-1-phenylbutan-2-yl)-4-(4-phenyl-1H-pyrazol-1-yl)thiazole-5-carboxamide]"
< 3 µM,< 3 µM,< 3 µM,"NC(=O)C(=O)[C@H](Cc1ccccc1)NC(=O)c1scnc1-n1ncc2ccccc21 [Compound 40, (S)—N-(4-amino-3,4-dioxo-1-phenylbutan-2-yl)-4-(1H-indazol-1-yl)thiazole-5-carboxamide]"
3 to 10 µM,< 3 µM,3 to 10 µM,"O=C(NC1CC1)C(=O)[C@H](Cc1ccccc1)NC(=O)c1cncn1-c1ccccn1 [Compound 41, (S)—N-(4-(cyclopropylamino)-3,4-dioxo-1-phenylbutan-2-yl)-1-(pyridin-2-yl)-1H-imidazole-5-carboxamide]"
< 3 µM,< 3 µM,> 10 µM,"O=C(NC1CC1)C(=O)[C@H](Cc1ccccc1)NC(=O)c1cncn1-c1ccn(-c2ccccc2)n1 [Compound 42, (S)—N-(4-(cyclopropylamino)-3,4-dioxo-1-phenylbutan-2-yl)-1-(1-phenyl-1H-pyrazol-3-yl)-1H-imidazole-5-carboxamide]"
< 3 µM,< 3 µM,< 3 µM,"O=C(NC1CC1)C(=O)[C@H](Cc1ccccc1)NC(=O)c1cncn1-c1nc2ccccc2s1 [Compound 43, (S)-1-(benzo[d]thiazol-2-yl)-N-(4-(cyclopropylamino)-3,4-dioxo-1-phenylbutan-2-yl)-1H-imidazole-5-carboxamide]"
< 3 µM,< 3 µM,< 3 µM,"COc1ccc(C[C@H](NC(=O)c2c(C)noc2-c2ccccc2)C(=O)C(N)=O)cc1 [Compound 46, (S)—N-(4-amino-1-(4-methoxyphenyl)-3,4-dioxobutan-2-yl)-3-methyl-5-phenylisoxazole-4-carboxamide]"
< 3 µM,< 3 µM,< 3 µM,CC[C@H](NC(=O)c1c(C)noc1-c1ccccc1)C(=O)C(N)=O [Compound 47]
3 to 10 µM,3 to 10 µM,3 to 10 µM,"NC(=O)C(=O)[C@H](Cc1ccccc1)NC(=O)c1[nH]cnc1-c1ccccc1 [Compound 48, (S)—N-(4-amino-3,4-dioxo-1-phenylbutan-2-yl)-4-phenyl-1H-imidazole-5-carboxamide]"
3 to 10 µM,3 to 10 µM,> 10 µM,"O=C(NC1CC1)C(=O)[C@H](Cc1ccccc1)NC(=O)c1cncn1-c1n[nH]c2ccccc12 [Compound 51, (S)—N-(4-(cyclopropylamino)-3,4-dioxo-1-phenylbutan-2-yl)-1-(1H-indazol-3-yl)-1H-imidazole-5-carboxamide]"
< 3 µM,< 3 µM,< 3 µM,"NC(=O)C(=O)[C@H](Cc1ccccc1)NC(=O)c1cncn1-c1ncc(-c2ccccc2)s1 [Compound 52, (S)—N-(4-amino-3,4-dioxo-1-phenylbutan-2-yl)-1-(5-phenylthiazol-2-yl)-1H-imidazole-5-carboxamide]"
< 3 µM,< 3 µM,3 to 10 µM,"O=C(NC1CC1)C(=O)[C@H](Cc1ccccc1)NC(=O)c1cncn1-c1ncc(-c2ccccc2)s1 [Compound 53, (S)—N-(4-(cyclopropylamino)-3,4-dioxo-1-phenylbutan-2-yl)-1-(5-phenylthiazol-2-yl)-1H-imidazole-5-carboxamide]"
< 3 µM,< 3 µM,< 3 µM,"Cc1nc(C(=O)N[C@@H](Cc2ccccc2)C(=O)C(N)=O)c(-c2ccccc2)s1 [Compound 54, (S)—N-(4-amino-3,4-dioxo-1-phenylbutan-2-yl)-2-methyl-5-phenylthiazole-4-carboxamide]"
< 3 µM,< 3 µM,< 3 µM,Cc1noc(-c2ccccc2)c1C(=O)N[C@@H](CC(C)(C)C)C(=O)C(N)=O [Compound 56]
< 3 µM,< 3 µM,< 3 µM,O=C(NC1CC1)C(=O)[C@H](Cc1ccccc1)NC(=O)c1scnc1-c1ccccn1 [Compound 61]
< 3 µM,< 3 µM,< 3 µM,"CCCC[C@H](NC(=O)c1c(C)noc1-c1ccccc1)C(=O)C(N)=O [Compound 62, (S)—N-(1-amino-1,2-dioxoheptan-3-yl)-3-methyl-5-phenylisoxazole-4-carboxamide]"
< 3 µM,< 3 µM,< 3 µM,"O=C(NC1CC1)C(=O)[C@H](Cc1ccccc1)NC(=O)c1scnc1-n1cc2ccccc2n1 [Compound 64, (S)—N-(4-(cyclopropylamino)-3,4-dioxo-1-phenylbutan-2-yl)-4-(2H-indazol-2-yl)thiazole-5-carboxamide]"
> 10 µM,> 10 µM,> 10 µM,"Cc1cc(C(=O)N[C@@H](Cc2ccccc2)C(=O)C(=O)NC2CC2)n(-c2ncccn2)n1 [Compound 65, (S)—N-(4-(cyclopropylamino)-3,4-dioxo-1-phenylbutan-2-yl)-3-methyl-1-(pyrimidin-2-yl)-1H-pyrazole-5-carboxamide]"
3 to 10 µM,< 3 µM,< 3 µM,"Cc1cc(C(=O)N[C@@H](Cc2ccccc2)C(=O)C(N)=O)n(-c2ncccc2C)n1 [Compound 66, (S)—N-(4-amino-3,4-dioxo-1-phenylbutan-2-yl)-3-methyl-1-(3-methylpyridin-2-yl)-1H-pyrazole-5-carboxamide]"

# Reference: US11339130B1 (Blade Therapeutics, Inc., priority 2016, dated 2022)
